From patent EP2451450B1, “Inhibitors of proline racemase enzymes for the treatment of Trypanosoma spp infections” (Institut Pasteur, priority 2009, dated 2011)

What was measured:
[1] = system: T.cruzi CL Brener (clone F11-F5); test: Vero cell infection by trypomastigotes in the presence of inhibitor (17h), Giemsa scoring; type: cell-based; parameters: key to Endocytic index / Endocytic index (EI): EI = % infected cells × mean parasites per infected cell; conditions: for Mean number of parasites/ cell: 1,5 at 0; for % Infected cells: 38,6 at 0; for Endocytic index: 57 at 0
Description: (§1) Vero cells (from green monkey kidney) were seeded at a density of 15x10^6 cells per 25cm^2 culture flasks or at 5 x10^4 cells/well into LabTek slides. The cultures were maintained in RPMI 1640 medium supplemented with 5% fetal bovine serum and kept at 37°C in an atmosphere of 5% CO2. Cell culture-derived trypomastigotes from T.cruzi CL Brener (clone F11-F5) were isolated from the supernatant of Vero cells, which had been previously infected with bloodstream trypomastigotes. Vero cell cultures were infected for 17h at 37°C with cultured trypomastigotes at a 10:1 parasite/cell ratio in the presence or in the absence of increasing doses of freshly made dilutions (3-30 µM) of (E)-4-oxopent-2-enoic acid (OxoPA) and its derivative (E)-5-bromo-4-oxopent-2-enoic acid (Br-OxoPA), previously dissolved in dimethyl sulfoxide (DMSO). For comparison, cultures were seeded with or without 10-1000 µM specific proline racemase inhibitor pyrrole-2-carboxylic acid (PYC) also diluted in DMSO. To verify if proline racemase inhibitors could also exert an effect on the parasite intracellular cycle after 17 hours of parasite-host cell interaction, all the wells were then rinsed three times to eliminate all extracellular parasites and new medium was added to the cultures that were incubated for up to 48 hours with fresh dilutions of the inhibitor compounds. After the different treatments, cultures were washed with PBS, fixed and stained with Giemsa. The numbers of infected host cells and of parasites per infected cell were then scored in at least 400 host cells in independent experiments, run in duplicate. Results are expressed as the percentage of infected cells, the mean number of parasites per infected cell or by the endocytic index (EI) which represents the percentage of infected cells multiplied by the mean number of parasites per infected cell.
Vero cells (from green monkey kidney) were seeded at a density of 15x10^6 cells per 25cm^2 culture flasks or at 5 x10^4 cells/well into LabTek slides. The cultures were maintained in RPMI 1640 medium supplemented with 5% fetal bovine serum and kept at 37°C in an atmosphere of 5% CO2. Cell culture-derived trypomastigotes from T.cruzi CL Brener (clone F11-F5) were isolated from the supernatant of Vero cells, which had been previously infected with bloodstream trypomastigotes. LabTek wells were infected for 17h at 37°C with cultured trypomastigotes at a 10:1 parasite/cell ratio in the presence or in the absence of increasing doses of a freshly made dilutions of 3-30 µM of OxoPA or Br-OxoPA molecules. Cultures were washed, fixed and stained with Giemsa. *At this stage, for comparison, results obtained from cultures seeded with or without 10-1000 µM specific proline racemase inhibitor pyrrole-2-carboxylic acid (PYC) are shown and were obtained from our previous work. Endocytic index was calculated as the % of infected cells X the mean number of intracellular parasites per infected cell. Nd = Not done

[2] = system: T.cruzi CL Brener (clone F11-F5); test: Intracellular parasite fate: inhibitor added after 17h infection, 48h, Giemsa scoring; type: cell-based; conditions: 48h after infection; for Mean number of parasites/ cell: 3,9 at 0; for % Infected cells: 39,3 at 0; for Number of parasites/100 cells: 153,15 at 0
Description: as §1
Additional studies were performed to verify whether TcPRAC inhibition by the new compounds would influence the intracellular fate of the parasite. For this purpose, after infection for 17 hours, the host cells were washed and different ligand concentrations (3µM, 10 µM, 30 µM) were added to the medium and the infection was followed for up to 48 hours. As can be observed in Tables 4A, B and C, after 48 hours of culture treatments, there was a dose-dependent decrease in the number of parasites/ 100 cells, as well as in the percentage of infected cells or yet in the mean number of parasites/cell. […] Table 4A : Number of parasites/100 cells
Vero cells (from green monkey kidney) were seeded at a density of 15x10^6 cells per 25cm2 culture flasks or at 5x10^4 cells/well into LabTek slides. The cultures were maintained in RPMI 1640 medium supplemented with 5% fetal bovine serum and kept at 37°C in an atmosphere of 5% CO2. Cell culture-derived trypomastigotes from T.cruzi CL Brener (clone F11-F5) were isolated from the supernatant of Vero cells, which had been previously infected with bloodstream trypomastigotes. LabTek wells were infected for 17h at 37°C with cultured trypomastigotes at a 10:1 parasite/cell ratio. All the wells were then washed to eliminate all extracellular parasites and new medium was added to the cultures containing or not increasing concentrations of freshly made dilutions of 3-30 µM of OxoPA or Br-OxoPA molecules. Cultures were washed after 48h, fixed and stained with Giemsa.

T. cruzi = test: Capture ELISA of Vero cultures infected 17h with or without inhibitor; type: cell-based, Trypanosoma cruzi; conditions: 17h at 37°C, 10:1 parasite/cell ratio; 0-30 mM OxoPA, Br-OxoPA or 10-1000 µM PYC in DMSO; Fig. 9
Description: Flat-bottomed microtiter plates (Nunc, Denmark) were coated overnight at 4°C with rabbit anti-T. cruzi polyclonal antibodies and further blocked for 4 h at room temperature (RT) with 1% BSA, 0.05% Tween 20 in PBS. After washings, lysate samples from infected or control Vero cultures, or from T. cruzi, were then added and incubated at 4°C for 18h. Plates were washed with PBS-Tween and incubated for 2h at RT with polyclonal mouse anti-T. cruzi chronic serum, washed again and incubated for 1 h at RT with HRP-secondary antibodies. […] Optical densities were determined in a spectrophotometer at 450 nm and 650 nm and analyzed using Softmax Pro software.
To confirm the effect of the inhibitors in the initial steps of the host-parasite interaction, cultures were infected for 17h at 37°C at a 10:1 parasite/cell ratio with or without increasing doses of freshly prepared dilutions (0-30 mM) of OxoPA, Br-OxoPA (15), or (10-1000 µM) of PYC, previously dissolved in DMSO and further analyzed by capture ELISA (see methods and Fig. 9). […] Three ongoing studies were performed to determine whether TcPRAC inhibition by the new compounds affects parasite intracellular fate. To do this, host cells were infected for 17 hours then washed and different ligand concentrations (5 mM, 10 mM, 30, 100 mM) were added to the medium. The degree of infection was determined over 48 hours by capture ELISA. The number of parasites per well decreased in a dose-dependent manner (Fig. 7). These experiments indicate that TcPRAC inhibition by OxoPA and Br-OxoPA affects both cellular infection by T. cruzi and parasite development in tissues.

[3] = Inhibitor concentration (µM) 30, Table 5

SMILES	Mean number of parasites/ cell ([1]; 3 µM)	% Infected cells ([1]; 3 µM)	Endocytic index ([1]; 3 µM)	Mean number of parasites/ cell ([1]; 10 µM)	% Infected cells ([1]; 10 µM)	Endocytic index ([1]; 10 µM)	Mean number of parasites/ cell ([1]; 30 µM)	% Infected cells ([1]; 30 µM)	Endocytic index ([1]; 30 µM)	Endocytic index (EI) [1, 3]	lower doses necessary to obtain the same endocytic index (EI) as with PYC ([1]; Table 5) [fold]	lower doses necessary to obtain the same endocytic index (EI) as with PYC ([1]; versus 1000 µM PYC) [times]	Mean number of parasites/ cell ([2]; 3 µM)	% Infected cells ([2]; 3 µM)	Number of parasites/100 cells ([2]; 3 µM)	Mean number of parasites/ cell ([2]; 10 µM)	% Infected cells ([2]; 10 µM)	Number of parasites/100 cells ([2]; 10 µM)	Mean number of parasites/ cell ([2]; 30 µM)	% Infected cells ([2]; 30 µM)	further results
O=C(O)/C=C/C(=O)CBr [Br-OxoPA, (E)-5-bromo-4-oxopent-2-enoic acid]	2,0	37,7%	77,7	1,8	23,5%	42,3	1,6	13,5%	28,7	29	30	30	3,2	55,3%	176,5	3,1	49,8%	155,8	2,3	31,0%	Endocytic index (EI) ([1]; Inhibitor concentration (µM) 10, Table 5): 42; Number of parasites/100 cells ([2]; 30 µM): 69,4; inhibition of cellular infection (T. cruzi): a clear dose dependent inhibition of cellular infection
CC(=O)/C=C/C(=O)O [OxoPA, (E)-4-oxopent-2-enoic acid]	1,6	26,8%	41,8	1,4	16,6%	22,96	1,5	13,9%	21,5	21	100	100	2,9	41,3%	121,3	3,0	41,3%	129,4	2,8	20,0%	Number of parasites/100 cells ([2]; 30 µM): 56,1; inhibition of cellular infection (T. cruzi): a clear dose dependent inhibition of cellular infection
